Measured values as given in publication PMC3389674, “Comparison of Soluble Guanylate Cyclase Stimulators and Activators in Models of Cardiovascular Disease Associated with Oxidative Stress” (Frontiers in Pharmacology, 2012).

Assays:
WKY rat isolated aorta = test: vasodilation of phenylephrine-contracted WKY rat isolated aorta with and without ODQ
Description: Male Wistar Kyoto (WKY; Charles River Laboratories, Inc., Raleigh, NC, USA) were anesthetized with inhaled isoflurane (5% in O2) and euthanized by exsanguination. Thoracic aorta was isolated, cleaned of adherent tissue, cut into 3 mm rings, and suspended in 10 mL organ baths containing Krebs–Henseleit buffer (KHB) of the following composition (mM): NaCl, 112.0; KCl, 4.7; KH2PO4, 1.2; MgSO4, 1.2; CaCl2, 2.5; NaHCO3, 25.0; glucose, 11.0. KHB was maintained at 37°C and aerated with 95%O2:5%CO2 (pH 7.4). Changes in isometric force were measured under 1g optimal resting tension using MLT0201/D force-displacement transducers (Letica, Barcelona, Spain) and recorded digitally (Chart 5.0 software, ADInstruments, Colorado Springs, CO, USA). After a 1 h equilibration period, each tissue was contracted to equilibrium with 60 mM KCl, washed with KHB and allowed to relax to the resting tension. The 60 mM KCl contraction was repeated and subsequent contractile responses were normalized to this second KCl response. Each tissue was then contracted to equilibration with 1 μM phenylephrine, washed with KHB and allowed to relax to the resting tension. In order to further investigate the mechanism by which BAY 60-4552 and GSK2181236A were modulating sGC function, the vasodilatory effects of both compounds were assessed in the presence and absence of ODQ, a heme-site inhibitor of sGC. Following a 20 min pre-treatment with DMSO vehicle (0.1% final concentration, v/v) or ODQ (10 μM), aortae were contracted with 0.3 μM phenylephrine (an approximate EC80 concentration). Once the contractile response to phenylephrine reached a plateau (∼10 min), contractile tone was reversed by adding cumulative concentrations of BAY 60-4552 or GSK2181236A to the tissue baths at log increments (0.1 nM to 10 μM).

Sprague Dawley rats = test: radiotelemetry heart rate and blood pressure after single oral dose; type: in vivo, rat
Description: To identify equi-efficacious doses of GSK2181236A and BAY 60-4552, heart rate and blood pressure were monitored in male Sprague Dawley (SD) rats (∼500g, n = 4–6 per group) via surgically implanted radiotelemetry transmitters (PhysioTel PA-C40, Data Sciences International, St. Paul, MN, USA). Following oral gavage dosing (0.03–3.0 mg/kg), hemodynamic data were recorded every 5 min for 10 s and then averaged every hour.

SHR-SP = test: chronic treatment of SHR-SP on high salt/fat diet: survival, blood pressure, renal and cardiac function; type: in vivo, rat; conditions: for CO (cardiac output) / EDV (end diastolic volume) / EF (ejection fraction) / ESV (end systolic volume) / SV (stroke volume) / LVM/BW (left ventricular mass to body weight ratio): echocardiography after 7 weeks of HSFD; for LVM/BW (left ventricular mass to body weight ratio): HSFD control 3.08 ± 0.06; for survival rate: HSFD control 14%; for urine output: HSFD control 111 ± 21; for MAP: HSFD control 192 ± 10; for effect on MAP compared to the HSFD controls: lower doses: 0.1 mg/kg/day GSK2181236A, 0.3 mg/kg/day BAY 60-4552
Source text: The SHR-SP is an established model of genetic hypertension. […] As such, a cohort of HSFD SHR-SP was established as a model of cardiovascular disease associated with chronic oxidative stress in this study.
A subgroup of animals (n = 45) was anesthetized with isoflurane and surgically implanted with radiotelemetry transmitters (PhysioTel PA-C40, Data Sciences International, St. Paul, MN, USA). The transmitter catheter was threaded through the femoral artery into the abdominal aorta. At 11–12 weeks of age, baseline blood pressure and heart rate were measured for 5 days (10 s recordings every 5 min) in normal caging, then rats were acclimated to metabolic caging for a minimum of 48 h before a basal 24 h urine sample and blood were collected. […] The ND group was maintained on normal chow and water throughout the study. […] Rats displaying signs of morbidity which included piloerection, lack of grooming, persistent body weight loss, lethargy, or seizure/convulsions, were promptly euthanized.
Treatments were administered in respective diets starting 1 week after the initiation of HSFD. Urine collections were repeated on weeks 2, 4, 6, and 8 and blood was sampled in the morning after each 24 h collection period for assessment of renal function. Plasma creatinine and urine sodium, microalbumin (MALB), and creatinine were ascertained using an AU640 Chemistry Analyzer (Olympus America, Inc., Center Valley, PA, USA). Plasma compound concentrations were determined as described above.
During week 7, cardiac function and morphometry were evaluated via transthoracic echocardiography. Rats were anesthetized with isoflurane (2–4% induction and 1–3% maintenance). Two-dimensional gray scale images of the left ventricle were obtained in the short axis plane at mid-ventricle level and in the parasternal long axis plane using a GE Vivid 7 system (GE Medical Systems, Milwaukee, WI, USA) and stored as digital cineloops. Pulse wave Doppler recordings from the LV outflow were obtained to determine heart rate. All images were analyzed by a single observer using a GE EchoPac (GE Medical Systems, Milwaukee, WI, USA). LV volumes were calculated as V=5/6(LVA×LVL) where LVA is area of LV chamber from the short axis view and LVL is the LV length from the long axis view at end diastole and end systole. […] Analysis was performed on three to five cardiac cycles.

## COC(=O)Nc1c(N)nc(-c2nn(Cc3ccccc3F)c3ncccc23)nc1N [BAY 60-4552]
WKY rat isolated aorta; 0.1 μM compound, ODQ 10 μM
  reduction of vasodilatory response by ODQ: 48%
WKY rat isolated aorta; 1 μM compound, ODQ 10 μM
  reduction of vasodilatory response by ODQ: 30%
Sprague Dawley rats; rat, in vivo
  potency on heart rate and blood pressure, less potent than GSK2181236A: approximately threefold
Sprague Dawley rats; single p.o. dose
  highest no-effect dose on heart rate and blood pressure: 0.3 mg/kg
SHR-SP; 3 mg/kg/day for 7 weeks, P > 0.05
  reduction of MAP compared to HSFD controls: 17 mmHg
SHR-SP; HSFD + 0.3 mg/kg/day
  CO (cardiac output): 86 ± 6 mL/min
  EDV (end diastolic volume): 356 ± 21 µL
  EF (ejection fraction): 69 ± 2%
  ESV (end systolic volume): 111 ± 11 µL
  SV (stroke volume): 245 ± 14 µL
  LVM/BW (left ventricular mass to body weight ratio): 3.06 ± 0.07 mg/g
SHR-SP; HSFD + 3.0 mg/kg/day
  CO (cardiac output): 89 ± 6 mL/min
  EDV (end diastolic volume): 379 ± 21 µL
  EF (ejection fraction): 67 ± 1%
  ESV (end systolic volume): 120 ± 9 µL
  SV (stroke volume): 259 ± 13 µL
  LVM/BW (left ventricular mass to body weight ratio): 2.85 ± 0.10 mg/g
SHR-SP; HSFD, 0.3 mg/kg/day for 7 week
  survival rate: 46%
SHR-SP; HSFD, 0.3 mg/kg/day for seven weeks
  urine output: 79 ± 11 mL/day
SHR-SP; HSFD, 3 mg/kg/day for 7 week
  survival rate: 69%
SHR-SP; HSFD, 3 mg/kg/day for 7 weeks
  MAP: 175 ± 1 mmHg
SHR-SP; HSFD, 3.0 mg/kg/day for seven weeks
  urine output: 56 ± 10 mL/day
SHR-SP; HSFD, 3.0 mg/kg/day, HSFD control 26.4 ± 2.2
  sodium excretion: 16 ± 2 mmol/day
SHR-SP; HSFD, 3.0 mg/kg/day, HSFD control 282.4 ± 20.2
  MALB excretion: 142 ± 42 mg/day
SHR-SP
  effect on MAP compared to the HSFD controls: did not have any effect on MAP

## Cc1cc(-c2ccc(OC(F)(F)F)cc2)ccc1COc1ccccc1-c1cccc(-n2ncc(C(=O)O)c2C(F)(F)F)n1 [GSK2181236A, 1-(6-{2-[({3-methyl-4′-[(trifluoromethyl)oxy]-4-biphenylyl}methyl)oxy]phenyl}-2-pyridinyl)-5-(trifluoromethyl)-1H-pyrazole-4-carboxylic acid]
WKY rat isolated aorta; 0.1 μM compound, ODQ 10 μM
  increase of vasodilatory response by ODQ: 41%
WKY rat isolated aorta; 1 μM compound, ODQ 10 μM
  increase of vasodilatory response by ODQ: 36%
WKY rat isolated aorta; 10 μM compound
  increase of vasodilatory response by ODQ: 21%
Sprague Dawley rats; high dose
  lowering of mean arterial pressure (MAP): 5–10 mmHg
Sprague Dawley rats; rat, in vivo
  potency on heart rate and blood pressure, more potent than BAY 60-4552: ~3 fold
Sprague Dawley rats; single p.o. dose
  doses that increased heart rate and reduced blood pressure: ≥ 0.3 mg/kg
  highest no-effect dose on heart rate and blood pressure: 0.1 mg/kg
SHR-SP; 1.0 mg/kg/day for 7 week, not significant
  reduction of MAP compared to HSFD controls: 9 mmHg
SHR-SP; 0.1 and 1.0 mg/kg/day
  MALB excretion vs HSFD controls: did not alter
  sodium excretion vs HSFD controls: did not alter
  urine output vs HSFD controls: did not alter
SHR-SP; HSFD + 0.1 mg/kg/day
  CO (cardiac output): 76 ± 7 mL/min
  EDV (end diastolic volume): 331 ± 29 µL
  EF (ejection fraction): 67 ± 2%
  ESV (end systolic volume): 110 ± 11 µL
  SV (stroke volume): 222 ± 19 µL
  LVM/BW (left ventricular mass to body weight ratio): 2.69 ± 0.08 mg/g
SHR-SP; HSFD + 1.0 mg/kg/day
  CO (cardiac output): 80 ± 5 mL/min
  EDV (end diastolic volume): 332 ± 22 µL
  EF (ejection fraction): 71 ± 1%
  ESV (end systolic volume): 98 ± 10 µL
  SV (stroke volume): 234 ± 14 µL
  LVM/BW (left ventricular mass to body weight ratio): 2.82 ± 0.07 mg/g
SHR-SP; HSFD, 0.1 mg/kg/day for 7 week
  survival: did not improve survival
SHR-SP; HSFD, 1.0 mg/kg/day for 7 week
  survival rate: 69%
  MAP: 183 ± 7 mmHg
SHR-SP
  effect on MAP compared to the HSFD controls: did not have any effect on MAP
